Assay results published in PubChem BioAssay AID248 (DTP/NCI, 2004).
Values joined by “and” are separate entries in the source; they are usually repeats but may differ in a detail not shown here. Equal entries are not always repeated. Inconclusive results and toxic doses are left out. No stated cut-off is given here; in the data, active means T/C of 150% or more; inactive means T/C below 125%.

Tested on: L1210 leukemia ip in BDF1 mice, survival T/C
Assay: NCI In Vivo Anticancer Drug Screen. Data for tumor model L1210 Leukemia (intraperitoneal) in B6D2F1 (BDF1) mice
Settings: endpoint: mean survival time, higher = longer survival
Procedure, shortened: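 Mice bearing the transplanted tumor received compound or vehicle. Survival of the treated group was divided by that of the vehicle-treated control group to give the ratio.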

[1] = dose: 100.0 mg/kg/injection, schedule: Q01DX009 (ip), vehicle: saline with Tween-80
[2] = dose: 100.0 mg/kg/injection, schedule: Q01DX001 (ip), vehicle: saline
[3] = dose: 100.0 mg/kg/injection, schedule: Q04DX003 (ip), vehicle: saline
[4] = dose: 200.0 mg/kg/injection, schedule: Q01DX001 (ip), vehicle: saline
[5] = dose: 200.0 mg/kg/injection, schedule: Q04DX003 (ip), vehicle: saline
[6] = dose: 400.0 mg/kg/injection, schedule: Q01DX001 (ip), vehicle: saline
[7] = dose: 200.0 mg/kg/injection, schedule: Q01DX009 (ip), vehicle: saline with Tween-80
[8] = dose: 400.0 mg/kg/injection, schedule: Q01DX009 (ip), vehicle: saline with Tween-80

Measured: T/C

N#CC1C=CCC1 (centres undefined)
inactive: dose: 50.0 mg/kg/injection, schedule: Q01DX009 (ip), vehicle: saline with Tween-80 100 % of control | [1] 100 % of control

C[n+]1ccc2cc(-c3ccccc3)c3ccccc3c2c1
inactive: dose: 1.56 mg/kg/injection, schedule: Q01DX009 (ip), vehicle: water 102 % of control | dose: 3.12 mg/kg/injection, schedule: Q01DX009 (ip), vehicle: water 104 % of control | dose: 6.25 mg/kg/injection, schedule: Q01DX009 (ip), vehicle: water 104 % of control | dose: 6.25 mg/kg/injection, schedule: Q04DX003 (ip), vehicle: water 98 % of control | dose: 12.5 mg/kg/injection, schedule: Q01DX009 (ip), vehicle: water 95 % of control | dose: 12.5 mg/kg/injection, schedule: Q04DX003 (ip), vehicle: water 103 % of control | dose: 25.0 mg/kg/injection, schedule: Q04DX003 (ip), vehicle: water 88 % of control

COc1ccc(Cl)cc1C/C=N/NC(=O)C[N+](C)(C)C
inactive: dose: 75.0 mg/kg/injection, schedule: Q01DX001 (ip), vehicle: saline 92 % of control

CN1CCN(/N=N/N2CCN(C)CC2)CC1
inactive: dose: 100.0 mg/kg/injection, schedule: Q01DX001 (ip), vehicle: Klucel (hydroxypropylcellulose) (HPC) 105 % of control | dose: 200.0 mg/kg/injection, schedule: Q01DX001 (ip), vehicle: Klucel (hydroxypropylcellulose) (HPC) 101 % of control | dose: 400.0 mg/kg/injection, schedule: Q01DX001 (ip), vehicle: Klucel (hydroxypropylcellulose) (HPC) 100 % of control

C=CCCCCCCCCCC(CCCCC)C(=O)O (centres undefined)
inactive: dose: 100.0 mg/kg/injection, schedule: Q01DX001 (ip), vehicle: saline with Tween-80 100 % of control | dose: 200.0 mg/kg/injection, schedule: Q01DX001 (ip), vehicle: saline with Tween-80 94 % of control | dose: 400.0 mg/kg/injection, schedule: Q01DX001 (ip), vehicle: saline with Tween-80 92 % of control

COc1cc2c(cc1OC)C13CCN4CC5=CCOC6CC(=O)N2C1C6C5CC43 (centres undefined)
inactive: dose: 9.5 mg/kg/injection, schedule: Q01DX001 (ip), vehicle: other 103 % of control | dose: 19.0 mg/kg/injection, schedule: Q01DX001 (ip), vehicle: other 103 % of control | dose: 25.0 mg/kg/injection, schedule: Q01DX015 (ip), vehicle: saline 101 % of control | dose: 38.0 mg/kg/injection, schedule: Q01DX001 (ip), vehicle: other 97 % of control | dose: 50.0 mg/kg/injection, schedule: Q01DX015 (ip), vehicle: saline 100 % of control | dose: 100.0 mg/kg/injection, schedule: Q01DX015 (ip), vehicle: saline 91 % of control

O=C1CSC2=NCCN12
inactive: [2] 99 % of control | [3] 93 % of control | [4] 99 % of control | [5] 98 % of control | [6] 92 % of control

O=C(Nc1ccc(C(F)(F)F)c([N+](=O)[O-])c1)c1ccc(C(=O)Nc2ccc(C(F)(F)F)c([N+](=O)[O-])c2)cc1
inactive: dose: 100.0 mg/kg/injection, schedule: Q01DX001 (ip), vehicle: other 96 % of control | dose: 200.0 mg/kg/injection, schedule: Q01DX001 (ip), vehicle: other 93 % of control | dose: 400.0 mg/kg/injection, schedule: Q01DX001 (ip), vehicle: other 86 % of control

O=C(O)c1c(Cl)c(-c2c(Cl)c(C(=O)O)c(Cl)c([N+](=O)[O-])c2Cl)c(Cl)c([N+](=O)[O-])c1Cl
inactive: [1] 96 % of control | [7] 96 % of control | [8] 93 % of control

CC(N)COCc1ccccc1 (centres undefined)
inactive: dose: 25.0 mg/kg/injection, schedule: Q01DX009 (ip), vehicle: saline 97 % of control | dose: 25.0 mg/kg/injection, schedule: Q04DX003 (ip), vehicle: saline with Tween-80 97 % of control | dose: 50.0 mg/kg/injection, schedule: Q01DX009 (ip), vehicle: saline 97 % of control | dose: 50.0 mg/kg/injection, schedule: Q04DX003 (ip), vehicle: saline with Tween-80 119 % of control | dose: 100.0 mg/kg/injection, schedule: Q04DX003 (ip), vehicle: saline with Tween-80 97 % of control and 88 % of control

C=CCCC1(CCC(C)C)C(=O)NC(=O)NC1=O
inactive: dose: 150.0 mg/kg/injection, schedule: Q01DX001 (ip), vehicle: saline 116 % of control

CCOC(=O)C(C)(CCC#N)C(=O)OCC
inactive: [2] 95 % of control | dose: 100.0 mg/kg/injection, schedule: Q04DX002 (ip), vehicle: saline 101 % of control | [4] 95 % of control | dose: 200.0 mg/kg/injection, schedule: Q04DX002 (ip), vehicle: saline 105 % of control | [6] 95 % of control | dose: 400.0 mg/kg/injection, schedule: Q04DX002 (ip), vehicle: saline 105 % of control

CCCCCCC(O)CCCC (centres undefined)
inactive: [1] 117 % of control | dose: 100.0 mg/kg/injection, schedule: Q04DX003 (ip), vehicle: Klucel (hydroxypropylcellulose) (HPC) 91 % of control | [7] 110 % of control | dose: 200.0 mg/kg/injection, schedule: Q04DX003 (ip), vehicle: Klucel (hydroxypropylcellulose) (HPC) 88 % of control | [8] 122 % of control | dose: 400.0 mg/kg/injection, schedule: Q04DX003 (ip), vehicle: Klucel (hydroxypropylcellulose) (HPC) 88 % of control

O=C(CC[n+]1ccccc1)NCCCCCCNC(=O)CC[n+]1ccccc1
inactive: dose: 5.0 mg/kg/injection, schedule: Q01DX001 (ip), vehicle: saline 107 % of control

CCCCCCCCCCCCC(=O)O
inactive: dose: 100.0 mg/kg/injection, schedule: Q04DX002 (ip), vehicle: saline with Tween-80 98 % of control | dose: 200.0 mg/kg/injection, schedule: Q04DX002 (ip), vehicle: saline with Tween-80 98 % of control | dose: 400.0 mg/kg/injection, schedule: Q04DX002 (ip), vehicle: saline with Tween-80 105 % of control

N#Cc1c(-c2ccc(Cl)cc2)n(O)c2ccccc12
inactive: [2] 96 % of control | [4] 100 % of control | [6] 96 % of control

O=C(NCCCl)NC(CO)C(=O)O (centres undefined)
inactive: [3] 98 % of control | [5] 93 % of control | dose: 400.0 mg/kg/injection, schedule: Q04DX003 (ip), vehicle: saline 95 % of control

C=CCc1cc2c(C)cc(=O)oc2c(C)c1OC(C)=O
inactive: dose: 100.0 mg/kg/injection, schedule: Q01DX009 (ip), vehicle: gum acacia 100 % of control | dose: 100.0 mg/kg/injection, schedule: Q04DX003 (ip), vehicle: gum acacia 98 % of control | dose: 200.0 mg/kg/injection, schedule: Q01DX009 (ip), vehicle: gum acacia 96 % of control | dose: 200.0 mg/kg/injection, schedule: Q04DX003 (ip), vehicle: gum acacia 103 % of control | dose: 400.0 mg/kg/injection, schedule: Q01DX009 (ip), vehicle: gum acacia 91 % of control | dose: 400.0 mg/kg/injection, schedule: Q04DX003 (ip), vehicle: gum acacia 90 % of control

NC(=S)NN=C1CCC1
inactive: dose: 50.0 mg/kg/injection, schedule: Q01DX001 (ip), vehicle: saline 98 % of control | [2] 93 % of control and 91 % of control

Nc1nc(=O)n(C2OC(CO)C(O)C2O)c2nc(I)[nH]c12 (centres undefined)
inactive: dose: 50.0 mg/kg/injection, schedule: Q01DX005 (ip), vehicle: saline 100 % of control | dose: 100.0 mg/kg/injection, schedule: Q01DX005 (ip), vehicle: saline 107 % of control

C[CH2][Sn]([CH2]C)([CH2]C)[O]C(=O)CO
inactive: dose: 3.12 mg/kg/injection, schedule: Q04DX002 (ip), vehicle: saline 93 % of control | dose: 6.25 mg/kg/injection, schedule: Q04DX002 (ip), vehicle: saline 117 % of control | dose: 12.5 mg/kg/injection, schedule: Q04DX002 (ip), vehicle: saline 104 % of control
